We go through eleven compounds from patent US12410208B2, “(2-acetamidyl)thio-beta-D-galactopyranoside derivatives” (Idorsia Pharmaceuticals Ltd, priority 2020, dated 2025).

Experiment [1] has as its target biotinylated human Gal-3 (hGal-3) (Homo sapiens, UniProt P17931). Put plainly: Competitive binding assay: biotinylated hGal-3 binding to microplate-adsorbed asialofetuin (ASF), spectrophotometric. The note with it: Table 8; hGal-3; read-out: IC50 (Gal-3 inhibition). An outline of the steps: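 Serially diluted compounds competed with asialofetuin on the plate for biotinylated human Gal-3 during a 3 h incubation at 4° C. Streptavidin-peroxidase with ABTS gave the spectrophotometric signal. IC50 values were averaged over repeat runs.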

In experiment [2] the target is human Gal-1 (hGal-1) (Homo sapiens, UniProt P09382). Put plainly: Competitive binding assay: biotinylated hGal-1 binding to microplate-adsorbed asialofetuin (ASF), spectrophotometric. The conditions noted are these: hGal-1 binding to asialofetuin; Table 15; R and S epimers of selected Examples also listed; read-out: IC50 (Galectin-1 inhibition). An outline of the steps: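 Spectrophotometric competition readout with ABTS after streptavidin-peroxidase (80 ng/mL, 1 h, 4 °C) detection of bound biotinylated hGal-1.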

Structures are written as SMILES.

Chain of biotinylated human Gal-3 (hGal-3) (P17931 whole entry): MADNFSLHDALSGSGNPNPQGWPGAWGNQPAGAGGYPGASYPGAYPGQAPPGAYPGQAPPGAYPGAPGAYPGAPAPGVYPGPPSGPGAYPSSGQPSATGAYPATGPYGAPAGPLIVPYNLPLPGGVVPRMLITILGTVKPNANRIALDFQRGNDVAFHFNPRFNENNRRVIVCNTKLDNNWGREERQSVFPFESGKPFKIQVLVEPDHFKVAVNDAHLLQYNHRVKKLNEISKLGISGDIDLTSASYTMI
Chain of human Gal-1 (hGal-1) (P09382 whole entry): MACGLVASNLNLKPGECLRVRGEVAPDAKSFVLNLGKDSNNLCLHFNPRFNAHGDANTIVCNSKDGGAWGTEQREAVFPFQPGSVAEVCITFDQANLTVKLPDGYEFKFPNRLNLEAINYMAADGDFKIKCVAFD

A word on the IC50: it is the concentration needed to halve the response being measured. Take `CCN(C)C(=O)C(S[C@@H]1O[C@H](CO)[C@H](O)[C@H](n2cc(-c3cc(F)c(F)c(F)c3)nn2)[C@H]1O)C1(O)CCN(C(=O)NC2CC2)CC1` (stereo partly drawn) [Example 2.49.203., N-Cyclopropyl-4-(1-(((2S,3R,4S,5R,6R)-3,5-dihydroxy-6-(hydroxymethyl)-4-(4-(3,4,5-trifluorophenyl)-1H-1,2,3-triazol-1-yl)tetrahydro-2H-pyran-2-yl)thio)-2-(ethyl(methyl)amino)-2-oxoethyl)-4-hydroxypiperidine-1-carboxamide]: the figures for the IC50 in experiment [1] and in experiment [2] were 50 nM and 70 nM, respectively.
For `CCN(C)C(=O)[C@H](S[C@@H]1O[C@H](CO)[C@H](O)[C@H](n2cc(-c3cc(F)c(F)c(F)c3)nn2)[C@H]1O)C1(O)CCN(C(=O)NC2CC2)CC1` [Example 2.49.203R., (R)-N-Cyclopropyl-4-(1-(((2S,3R,4S,5R,6R)-3,5-dihydroxy-6-(hydroxymethyl)-4-(4-(3,4,5-trifluorophenyl)-1H-1,2,3-triazol-1-yl)tetrahydro-2H-pyran-2-yl)thio)-2-(ethyl(methyl)amino)-2-oxoethyl)-4-hydroxypiperidine-1-carboxamide], in that order: 2650 nM and 4430 nM.
For `CCN(C)C(=O)[C@@H](S[C@@H]1O[C@H](CO)[C@H](O)[C@H](n2cc(-c3cc(F)c(F)c(F)c3)nn2)[C@H]1O)C1(O)CCN(C(=O)NC2CC2)CC1` [Example 2.49.203S., (S)-N-Cyclopropyl-4-(1-(((2S,3R,4S,5R,6R)-3,5-dihydroxy-6-(hydroxymethyl)-4-(4-(3,4,5-trifluorophenyl)-1H-1,2,3-triazol-1-yl)tetrahydro-2H-pyran-2-yl)thio)-2-(ethyl(methyl)amino)-2-oxoethyl)-4-hydroxypiperidine-1-carboxamide], in that order: 40 nM and 60 nM.
The corresponding values for `CCN(C)C(=O)[C@H](S[C@@H]1O[C@H](CO)[C@H](O)[C@H](n2cc(-c3cc(F)c(F)c(F)c3)nn2)[C@H]1OC)C1(O)CCN(C(=O)NC2CC2)CC1` [Example 2.49.226R.I., N-Cyclopropyl-4-((R)-2-(ethyl(methyl)amino)-1-(((2S,3R,4S,5R,6R)-5-hydroxy-6-(hydroxymethyl)-3-methoxy-4-(4-(3,4,5-trifluorophenyl)-1H-1,2,3-triazol-1-yl)tetrahydro-2H-pyran-2-yl)thio)-2-oxoethyl)-4-hydroxypiperidine-1-carboxamide] are 1740 nM and 80 nM.
In the case of `CCN(C)C(=O)[C@@H](S[C@@H]1O[C@H](CO)[C@H](O)[C@H](n2cc(-c3cc(F)c(F)c(F)c3)nn2)[C@H]1OC)C1(O)CCN(C(=O)NC2CC2)CC1` [Example 2.49.226S.I., N-Cyclopropyl-4-((S)-2-(ethyl(methyl)amino)-1-(((2S,3R,4S,5R,6R)-5-hydroxy-6-(hydroxymethyl)-3-methoxy-4-(4-(3,4,5-trifluorophenyl)-1H-1,2,3-triazol-1-yl)tetrahydro-2H-pyran-2-yl)thio)-2-oxoethyl)-4-hydroxypiperidine-1-carboxamide], the results for the IC50 in experiment [1] and in experiment [2] were 60 nM and 1700 nM, respectively.
For `CCN(C)C(=O)C(S[C@@H]1O[C@H](CO)[C@H](O)[C@H](n2cc(-c3cc(F)c(F)c(F)c3)nn2)[C@H]1O)C1(O)CCN(C(=O)OC)CC1` (stereo partly drawn) [Example 2.50.203., Methyl 4-(1-(((2S,3R,4S,5R,6R)-3,5-dihydroxy-6-(hydroxymethyl)-4-(4-(3,4,5-trifluorophenyl)-1H-1,2,3-triazol-1-yl)tetrahydro-2H-pyran-2-yl)thio)-2-(ethyl(methyl)amino)-2-oxoethyl)-4-hydroxypiperidine-1-carboxylate], in that order: 70 nM and 100 nM.
The corresponding values for `CCN(C)C(=O)[C@H](S[C@@H]1O[C@H](CO)[C@H](O)[C@H](n2cc(-c3cc(F)c(F)c(F)c3)nn2)[C@H]1O)C1(O)CCN(C(=O)OC)CC1` [Example 2.50.203R., (R)-Methyl 4-(1-(((2S,3R,4S,5R,6R)-3,5-dihydroxy-6-(hydroxymethyl)-4-(4-(3,4,5-trifluorophenyl)-1H-1,2,3-triazol-1-yl)tetrahydro-2H-pyran-2-yl)thio)-2-(ethyl(methyl)amino)-2-oxoethyl)-4-hydroxypiperidine-1-carboxylate] are 4450 nM and 10500 nM.
The corresponding values for `CCN(C)C(=O)[C@@H](S[C@@H]1O[C@H](CO)[C@H](O)[C@H](n2cc(-c3cc(F)c(F)c(F)c3)nn2)[C@H]1O)C1(O)CCN(C(=O)OC)CC1` [Example 2.50.203S., (S)-Methyl 4-(1-(((2S,3R,4S,5R,6R)-3,5-dihydroxy-6-(hydroxymethyl)-4-(4-(3,4,5-trifluorophenyl)-1H-1,2,3-triazol-1-yl)tetrahydro-2H-pyran-2-yl)thio)-2-(ethyl(methyl)amino)-2-oxoethyl)-4-hydroxypiperidine-1-carboxylate] are 40 nM and 60 nM.
Take `CCN(C)C(=O)C(S[C@@H]1O[C@H](CO)[C@H](O)[C@H](n2cc(-c3cc(F)c(F)c(F)c3)nn2)[C@H]1O)C1(O)CCN(S(=O)(=O)C2CC2)CC1` (stereo partly drawn) [Example 2.51.203., 2-(1-(Cyclopropylsulfonyl)-4-hydroxypiperidin-4-yl)-2-(((2S,3R,4S,5R,6R)-3,5-dihydroxy-6-(hydroxymethyl)-4-(4-(3,4,5-trifluorophenyl)-1H-1,2,3-triazol-1-yl)tetrahydro-2H-pyran-2-yl)thio)-N-ethyl-N-methylacetamide]: the IC50 turned out to be 30 nM in experiment [1] and 70 nM in experiment [2].
With `CCN(C)C(=O)[C@H](S[C@@H]1O[C@H](CO)[C@H](O)[C@H](n2cc(-c3cc(F)c(F)c(F)c3)nn2)[C@H]1O)C1(O)CCN(S(=O)(=O)C2CC2)CC1` [Example 2.51.203R., (R)-2-(1-(Cyclopropylsulfonyl)-4-hydroxypiperidin-4-yl)-2-(((2S,3R,4S,5R,6R)-3,5-dihydroxy-6-(hydroxymethyl)-4-(4-(3,4,5-trifluorophenyl)-1H-1,2,3-triazol-1-yl)tetrahydro-2H-pyran-2-yl)thio)-N-ethyl-N-methylacetamide], the IC50 worked out at 4960 nM in experiment [1] and 7500 nM in experiment [2].
For `CCN(C)C(=O)[C@@H](S[C@@H]1O[C@H](CO)[C@H](O)[C@H](n2cc(-c3cc(F)c(F)c(F)c3)nn2)[C@H]1O)C1(O)CCN(S(=O)(=O)C2CC2)CC1` [Example 2.51.203S., (S)-2-(1-(Cyclopropylsulfonyl)-4-hydroxypiperidin-4-yl)-2-(((2S,3R,4S,5R,6R)-3,5-dihydroxy-6-(hydroxymethyl)-4-(4-(3,4,5-trifluorophenyl)-1H-1,2,3-triazol-1-yl)tetrahydro-2H-pyran-2-yl)thio)-N-ethyl-N-methylacetamide [1,3-di-deoxy-1-((2-(1-(cyclopropylsulfonyl)-4-hydroxypiperidin-4-yl)-N-ethyl-N-methylacetamide)-(S)-thio)-3-[4-(3,4,5-trifluorophenyl)-1H-1,2,3-triazol-1-yl]-β-D-galactopyranoside]], in that order: 20 nM and 30 nM.
